PubChem BioAssay (NCI)
Values joined by “and” are separate entries in the source; they are usually repeats but may differ in a detail not shown here. Equal values may be shown once.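 Cultured in 96-well plates, cells were exposed to test compound for 48 hours across five concentrations. GI50 is the concentration that inhibits growth by half. TGI denotes the concentration required for complete inhibition of growth.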

Tests used:
Assay in all cases: NCI tumour cell line growth inhibition, 48 h
[1] = tested on: A549 NSCLC
[2] = tested on: CCRF-CEM leukemia
[3] = tested on: COLO 205 colon
[4] = tested on: DU-145 prostate
[5] = tested on: HS 578T breast
[6] = tested on: KM12 colon
[7] = tested on: MCF7 breast
[8] = tested on: SK-OV-3 ovarian
[9] = tested on: SN12C renal
[10] = tested on: SNB-19 CNS

Compound | GI50 [1] | TGI [1] | GI50 [2] | TGI [2] | GI50 [3] | TGI [3] | GI50 [4] | TGI [4] | GI50 [5] | TGI [5] | GI50 [6] | TGI [6] | GI50 [7] | TGI [7] | GI50 [8] | TGI [8] | GI50 [9] | TGI [9] | GI50 [10] | TGI [10]
CS(=O)(=O)CCn1c(=O)c(Oc2ccc(F)cc2F)cc2cnc(NC3CCOCC3)nc21 | > 25 µM | > 25 µM | > 25 µM | > 25 µM | > 25 µM | > 25 µM | > 25 µM | > 25 µM | > 25 µM | > 25 µM | > 25 µM | > 25 µM | > 25 µM | > 25 µM | > 25 µM | > 25 µM | > 25 µM | > 25 µM | > 25 µM | > 25 µM
CC(O)(CNS(=O)(=O)c1ccccc1)c1ccccc1 (configuration not stated) |  | > 100 µM |  | > 100 µM |  | > 100 µM |  | > 100 µM |  | > 100 µM |  | > 100 µM |  | > 100 µM |  | > 100 µM |  | > 100 µM |  | > 100 µM
O=S(=O)(O)c1cc(N=Nc2cc(S(=O)(=O)O)c3cccnc3c2O)ccc1/C=C/c1ccc(N=Nc2cc(S(=O)(=O)O)c3cccnc3c2O)cc1S(=O)(=O)O |  | > 100 µM |  | 52.5 µM |  | > 100 µM |  | > 100 µM |  | > 100 µM |  | > 100 µM |  | > 100 µM |  | > 100 µM |  | > 100 µM |  | > 100 µM
COc1ccc(-c2nnc(N3CCN(C(=O)CN4CCN(c5ccc(Cl)cc5)CC4)CC3)nc2-c2ccc(OC)cc2)cc1 | 27.4 µM | > 100 µM | 48 µM | > 100 µM | 16.9 µM | > 100 µM | > 100 µM | > 100 µM | 23.5 µM | > 100 µM | 8.5 µM | > 100 µM | 5.82 µM | > 100 µM | 36.6 µM | > 100 µM | 17.8 µM | > 100 µM | 40.1 µM | > 100 µM
CN(C)CC1(Cc2ccccc2)CCC(Cc2ccccc2)C1=O (configuration not stated) |  | 33.5 µM |  | 12.5 µM |  | 19.4 µM |  | 28.7 µM |  | 48.9 µM |  | 20.9 µM |  | 24.9 µM |  | 36.4 µM |  | 23.9 µM |  | 29.7 µM
C=C1CC2(CCCC3(CC(=C)C(=O)O3)C2(C)C)OC1=O (configuration not stated) |  | 28.9 µM |  | 5.74 µM |  | 4.61 µM |  | 15.8 µM |  | 58 µM |  | 21.8 µM |  | 63.7 µM |  | 46.2 µM |  | 10.7 µM |  | 32.9 µM
O=S(=O)(NCCNc1cc(-c2cn(-c3ccccc3)nc2-c2cccc(O)c2)ccn1)c1ccc(Cl)cc1 | 3.89 µM | 18.8 µM | 3.4 µM | 28.6 µM | 1.87 µM | 4 µM | 3.6 µM | 21.3 µM | 3 µM | > 100 µM | 2.63 µM | 9.62 µM | 2.74 µM | 9.43 µM | 3.62 µM | 19.6 µM | 3.47 µM | 14 µM | 4.26 µM | 63.7 µM
CC(C)(C)OC(=O)CN1CCc2c(sc3ncnc(N/N=C/c4cccc5ccccc45)c23)C1 | 3.03 µM | > 33.3 µM | 1.56 µM | > 33.3 µM | 1.07 µM | 3.93 µM | 4.73 µM | 31.9 µM | 1.42 µM | 16 µM | 3.53 µM | 9.8 µM | 0.923 µM | 2.85 µM | 4.48 µM | 26.1 µM | 3.65 µM | 9.04 µM | 4.73 µM | 32.1 µM
Cc1cc(C)n(C(=O)c2nn(-c3ccc(Cl)cc3)cc2O)n1 | 3.72 µM | > 100 µM | 3.66 µM | 54.5 µM | 18.5 µM | 48.1 µM | 6.23 µM | > 100 µM | 3.21 µM | > 100 µM | 5.07 µM | > 100 µM | 4.52 µM | > 100 µM | 7.04 µM | 66.1 µM | 3.37 µM | > 100 µM | 3.6 µM | > 100 µM
C/C1=C/C(=O)O[C@@H]2C[C@@H](CC[C@H](C)/C=C\C=C\CC1)O[C@@](OCCc1ccccc1)([C@@H]1CSC(=O)N1)C2 | 0.0754 µM | > 17.5 µM | 0.282 µM | > 17.5 µM | 0.0845 µM | 0.401 µM | 0.282 µM | > 17.5 µM | 0.028 µM | 0.0973 µM | 6.19 µM | > 17.5 µM | 5.37 µM | > 17.5 µM | 0.116 µM | > 5.4 µM | 0.0787 µM | > 17.5 µM | 0.12 µM | > 17.5 µM
COc1cc2cc(Oc3ccc(NC(=O)Nc4ccc(Cl)c(C(F)(F)F)c4)cc3)c(C)nc2cc1OC |  | 4.16 µM | 1.01 µM | 3.09 µM | 0.66 µM | 1.31 µM | 1.24 µM | 5.11 µM | 0.72 µM | 2.31 µM | 1.07 µM | 3.85 µM | 1.08 µM | 3.88 µM | 1.35 µM | 5.79 µM | 1.31 µM | 6.12 µM | 1.41 µM | 5.31 µM
CN1CCN(CCNc2ccc(CO)c3sc4ccccc4c(=O)c23)CC1 |  | 11.3 µM |  | > 48 µM |  | 16.5 µM | 3.43 µM | 11.9 µM | 10.7 µM | 31.8 µM |  | 16.7 µM | 1.85 µM | 8.77 µM | 3.17 µM | 14 µM | 3.64 µM | 15.4 µM |  | 36.1 µM
COc1ccc2c(c1)cn1c3ccc(O)cc3[nH]c(=O)c21 | 0.301 µM | 1.82 µM | 0.149 µM | 4.66 µM | 0.409 µM | 2.83 µM | 0.234 µM | 8.74 µM | 0.481 µM | 25.2 µM | 0.329 µM | 5.39 µM | 0.366 µM | 1.95 µM | 0.202 µM | 12.8 µM | 0.403 µM | 17.9 µM | 0.203 µM | 19.5 µM
COc1cc(NCc2ccccc2O)c2ncccc2c1 | 49.1 µM | > 100 µM | 17 µM | > 100 µM | 19.7 µM | 77.2 µM | 41.7 µM | > 100 µM | 24.2 µM | > 100 µM | 22.5 µM | > 100 µM | 24.4 µM | > 100 µM | 20.2 µM | 50 µM | 34 µM | > 100 µM | 31.8 µM | > 100 µM
O=C(Nc1ccccc1O)c1ccc(CNC(=O)c2sccc2Nc2ccnc(C(F)(F)F)c2)cc1 | 8.68 µM | 28.2 µM | 1.01 µM | > 100 µM | 5.38 µM | 19.2 µM | 6.1 µM | 21 µM | 12.7 µM | > 100 µM | 12.2 µM | 32 µM | 2.65 µM | 41.8 µM | 10.6 µM | 37.3 µM | 13.7 µM | 55.1 µM | 13.2 µM | 31.1 µM
COc1ccc(CC(NC(=O)[C@H](C)NC(=O)CN2CCOCC2)C(=O)N[C@@H](Cc2ccccc2)C(=O)[C@@]2(C)CO2)cc1 (some centres not stated) | 0.461 µM | > 22.9 µM | 0.0859 µM | > 100 µM | 0.308 µM | 0.933 µM | 0.437 µM | 5.71 µM | 0.286 µM | 2.12 µM | 0.162 µM | 0.338 µM | 0.129 µM | > 41.6 µM | 0.392 µM | 1.77 µM | 0.263 µM | 1.53 µM | 0.651 µM | > 100 µM
O=C(Nc1cccc(O)c1)c1cccc(NC2=C(Cl)C(=O)N(Cc3ccccc3)C2=O)c1 | 18.8 µM | 48.3 µM | 0.513 µM | > 100 µM | 27.4 µM | 67 µM | 3.61 µM | 16 µM | 12.7 µM | 43.5 µM | 11.4 µM | 25 µM | 23.4 µM | 59.9 µM | 18.6 µM | 34.6 µM | 8.26 µM | 22.1 µM | 18.8 µM | 41.4 µM
Nc1ccc2ccc(NS(=O)(=O)N3CCCCC3)cc2c1 | 1 µM | > 46 µM | 0.46 µM | > 100 µM | 0.369 µM | 1.65 µM | 1.45 µM | 22.2 µM | 0.396 µM | 5.99 µM | 0.273 µM | > 65.7 µM | 0.295 µM | > 100 µM | 0.498 µM |  | 0.653 µM | > 100 µM | 0.797 µM | > 100 µM
Cc1cc(C)cc(Nc2ccc([N+](=O)[O-])c(NCCN3CCOCC3)n2)c1 | 0.00286 µM and 0.02 µM | > 100 µM | 0.00392 µM and 0.0331 µM | > 100 µM | 0.0023 µM | 0.00795 µM |  | > 100 µM | 0.00306 µM and 0.0165 µM | 48.4 µM | 0.000947 µM | > 100 µM | 0.000327 µM | > 100 µM |  | > 100 µM | 0.0706 µM | > 100 µM |  | 
C1=C(c2ccccc2)C(c2ccc(OCCN3CCCCC3)cc2)Oc2ccccc21 (configuration not stated) | 2.19 µM | 4.76 µM | 2.46 µM | 6.46 µM | 1.62 µM | 3.15 µM | 2.73 µM | 9.12 µM | 2.18 µM | 5.23 µM | 1.74 µM | 3.29 µM | 0.441 µM | 1.88 µM |  |  | 1.92 µM | 3.73 µM | 2.06 µM | 4.16 µM
